Experimental data: patent publication US10681909B2, “Herbicidal triazoles” (FMC Corporation, priority 2014, dated 2020)

Key:
wheat, winter [1] = assay: Test D preemergence; assay type: in vivo, Triticum aestivum; conditions: for Plant response rating (0 to 100), Wheat, Winter: 16 g ai/ha, 0 is no effect, 100 is complete control; for Plant response rating: Wheat, Winter: scale 0 to 100
From the text: (§1) Seeds of plant species selected from bluegrass (annual bluegrass, Poa annua), blackgrass (Alopecurus myosuroides), canarygrass (Phalaris minor), chickweed (common chickweed, Stellaria media), galium (catchweed bedstraw, Galium aparine), bromegrass, down (downy bromegrass, Bromus tectorum), Russian thistle (Salsola kali), field poppy (Papaver rhoeas), field violet (Viola arvensis), foxtail, green (green foxtail, Setaria viridis), deadnettle (henbit deadnettle, Lamium amplexicaule), ryegrass, Ital. (Italian ryegrass, Lolium multiflorum), kochia (Kochia scoparia), lambsquarters (Chenopodium album), oilseed rape (Brassica napus), pigweed (Amaranthus retroflexus), chamomile (scentless chamomile, Matricaria inodora), speedwell (bird's-eye speedwell, Veronica persica), barley, spring (spring barley, Hordeum vulgare), wheat, spring (spring wheat, Triticum aestivum), buckwheat, wild (wild buckwheat, Polygonum convolvulus), wild mustard (Sinapis arvensis), oat, wild (wild oat, Avena fatua), radish, wild (wild radish, Raphanus raphanistrum), […]), barley, winter (winter barley, Hordeum vulgare), and wheat, winter (winter wheat, Triticum aestivum) were planted into a silt loam soil and treated preemergence with test chemicals formulated in a non-phytotoxic solvent mixture which included a surfactant. At the same time, these species were planted in pots containing Sunshine Redi-Earth® planting medium comprising spaghnum peat moss, vermiculite, starter nutrients and dolomitic limestone and treated with postemergence applications of the test chemicals formulated in the same manner. Plants ranged in height from 2 to 18 cm (1- to 4-leaf stage). Treated plants and controls were maintained in a controlled growth environment for 14 to 21 d after which time all species were compared to controls and visually evaluated. […] A dash (-) response means no test result.

wheat, spring [2] = assay: Test D preemergence; assay type: in vivo, Triticum aestivum; conditions: for Plant response rating (0 to 100), Wheat, Spring: 16 g ai/ha, 0 is no effect, 100 is complete control; for Plant response rating: Wheat, Spring: scale 0 to 100
From the text: as §1

lambsquarters = assay: Test D preemergence; assay type: in vivo, Chenopodium album; conditions: for Plant response rating (0 to 100), Lambsquarters: 16 g ai/ha, 0 is no effect, 100 is complete control; for Plant response rating: Lambsquarters: scale 0 to 100
From the text: as §1

oilseed rape = assay: Test D preemergence; assay type: in vivo, Brassica napus; conditions: for Plant response rating (0 to 100), Oilseed Rape: 16 g ai/ha, 0 is no effect, 100 is complete control; for Plant response rating: Oilseed Rape: scale 0 to 100
From the text: as §1

galium [3] = assay: Test A postemergence; assay type: in vivo, Galium aparine; conditions: 0 to 100 scale (0 no effect, 100 complete control), approx. 10 d
Method in brief: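 Visual injury score, 0 (no effect) to 100 (complete control), taken about 10 d after treatment against untreated greenhouse controls. Chemicals formulated in non-phytotoxic solvent plus surfactant; preemergence by directed soil spray onto sown loam/sand, postemergence onto one- to two-leaf plants.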

galium [4] = assay: Test D postemergence; assay type: in vivo, Galium aparine; conditions: scale 0 to 100
From the text: as §1

wheat, winter [5] = assay: Test D postemergence; assay type: in vivo, Triticum aestivum; conditions: scale 0 to 100
From the text: as §1

wheat, spring [6] = assay: Test D postemergence; assay type: in vivo, Triticum aestivum; conditions: scale 0 to 100
From the text: as §1

barley, winter = assay: Test D postemergence; assay type: in vivo, Hordeum vulgare; conditions: scale 0 to 100
From the text: as §1

barley, spring = assay: Test D postemergence; assay type: in vivo, Hordeum vulgare; conditions: scale 0 to 100
From the text: as §1

waterhemp = assay: Test C preemergence; assay type: in vivo, Amaranthus rudis; conditions: for Waterhemp plant response rating (0 to 100): Preemergence, visual rating after 13 to 15 d; for Plant response rating (scale of 0 to 100 where 0 is no effect and 100 is complete control): Waterhemp, preemergence, 250 g ai/ha
From the text: (§2) Seeds of plant species selected from blackgrass (Alopecurus myosuroides), ryegrass, Italian (Italian ryegrass, Lolium multiflorum), wheat (winter wheat, Triticum aestivum), galium (catchweed bedstraw, Galium aparine), corn (Zea mays), crabgrass, large (large crabgrass, Digitaria sanguinalis), foxtail, giant, (giant foxtail, Setaria faberii), johnsongrass (Sorghum halepense), lambsquarters (Chenopodium album), morningglory (Ipomoea coccinea), nutsedge, yellow (yellow nutsedge, Cyperus esculentus), pigweed (Amaranthus retroflexus), ragweed (common ragweed, Ambrosia elatior), soybean (Glycine max), barnyardgrass (Echinochloa crus-galli), oilseed rape (Brassica napus), waterhemp (common waterhemp, Amaranthus rudis), and velvetleaf (Abutilon theophrasti) were planted into a blend of loam soil and sand and treated preemergence with test chemicals formulated in a non-phytotoxic solvent mixture which included a surfactant. At the same time, plants selected from these crop and weed species and also chickweed (common chickweed, Stellaria media), oat, wild (wild oat, Avena fatua), and kochia (Kochia scoparia), were planted in pots containing Sunshine Redi-Earth® planting medium comprising spaghnum peat moss, vermiculite, starter nutrients and dolomitic limestone and treated with postemergence applications of test chemicals formulated in the same manner. Plants ranged in height from 2 to 18 cm (1- to 4-leaf stage) for postemergence treatments. […] A dash (-) response means no test result.

nutsedge, yellow = assay: Test C preemergence; assay type: in vivo, Cyperus esculentus; conditions: for Plant response rating (scale of 0 to 100 where 0 is no effect and 100 is complete control): Nutsedge, Yellow, preemergence; for Nutsedge, Yellow plant response rating (0 to 100): Preemergence, visual rating after 13 to 15 d
From the text: as §2

pigweed = assay: Test C preemergence; assay type: in vivo, Amaranthus retroflexus; conditions: for Plant response rating (scale of 0 to 100 where 0 is no effect and 100 is complete control): Pigweed, preemergence; for Pigweed plant response rating (0 to 100): Preemergence, visual rating after 13 to 15 d
From the text: as §2

CCOc1nc(-c2ccc(C(F)(F)F)cc2)nn1Cc1ccnc(C(F)(F)F)c1 [Compound 35, 4-[[5-ethoxy-3-[4-(trifluoromethyl)phenyl]-1H-1,2,4-triazole-1-yl]methyl]-2-(trifluoromethyl)pyridine]
Plant response rating (0 to 100), Wheat, Winter (wheat, winter [1]): 20 | Plant response rating: Wheat, Winter (wheat, winter [1]; 62 g ai/ha): 40 | Plant response rating: Wheat, Winter (wheat, winter [1]; 125 g ai/ha): 45 | Plant response rating (0 to 100), Wheat, Spring (wheat, spring [2]): 25 | Plant response rating: Wheat, Spring (wheat, spring [2]; 62 g ai/ha): 50 | Plant response rating: Wheat, Spring (wheat, spring [2]; 125 g ai/ha): 50 | Plant response rating (0 to 100), Lambsquarters (lambsquarters): 85 | Plant response rating: Lambsquarters (lambsquarters; 62 g ai/ha): 95 | Plant response rating: Lambsquarters (lambsquarters; 125 g ai/ha): 100 | Plant response rating (0 to 100), Oilseed Rape (oilseed rape): 25 | Plant response rating: Oilseed Rape (oilseed rape; 62 g ai/ha): 40 | Plant response rating: Oilseed Rape (oilseed rape; 125 g ai/ha): 100 | Plant response rating, Galium (galium [3]; 31 g ai/ha): 90 | Plant response rating, Galium (galium [3]; 125 g ai/ha): 90 | Plant response rating: Galium (galium [4]; 16 g ai/ha): 70 | Plant response rating: Galium (galium [4]; 31 g ai/ha): 75 | Plant response rating: Galium (galium [4]; 62 g ai/ha): 80 | Plant response rating: Galium (galium [4]; 125 g ai/ha): 80 | Plant response rating: Wheat, Winter (wheat, winter [5]; 16 g ai/ha): 20 | Plant response rating: Wheat, Winter (wheat, winter [5]; 31 g ai/ha): 35 | Plant response rating: Wheat, Winter (wheat, winter [5]; 62 g ai/ha): 40 | Plant response rating: Wheat, Winter (wheat, winter [5]; 125 g ai/ha): 45 | Plant response rating: Wheat, Spring (wheat, spring [6]; 16 g ai/ha): 25 | Plant response rating: Wheat, Spring (wheat, spring [6]; 31 g ai/ha): 40 | Plant response rating: Wheat, Spring (wheat, spring [6]; 62 g ai/ha): 50 | Plant response rating: Wheat, Spring (wheat, spring [6]; 125 g ai/ha): 50 | Plant response rating: Barley, Winter (barley, winter; 16 g ai/ha): 25 | Plant response rating: Barley, Winter (barley, winter; 31 g ai/ha): 40 | Plant response rating: Barley, Winter (barley, winter; 62 g ai/ha): 40 | Plant response rating: Barley, Winter (barley, winter; 125 g ai/ha): 50 | Plant response rating: Barley, Spring (barley, spring; 16 g ai/ha): 30 | Plant response rating: Barley, Spring (barley, spring; 31 g ai/ha): 40 | Plant response rating: Barley, Spring (barley, spring; 62 g ai/ha): 40 | Plant response rating: Barley, Spring (barley, spring; 125 g ai/ha): 50 | Waterhemp plant response rating (0 to 100) (waterhemp; 31 g ai/ha): 100 | Waterhemp plant response rating (0 to 100) (waterhemp; 62 g ai/ha): 100 | Plant response rating (scale of 0 to 100 where 0 is no effect and 100 is complete control) (waterhemp): 100 | Plant response rating (scale of 0 to 100 where 0 is no effect and 100 is complete control) (nutsedge, yellow; 125 g ai/ha): 0 | Plant response rating (scale of 0 to 100 where 0 is no effect and 100 is complete control) (nutsedge, yellow; 250 g ai/ha): 0 | Nutsedge, Yellow plant response rating (0 to 100) (nutsedge, yellow; 31 g ai/ha): 0 | Nutsedge, Yellow plant response rating (0 to 100) (nutsedge, yellow; 62 g ai/ha): 0 | Plant response rating (scale of 0 to 100 where 0 is no effect and 100 is complete control) (pigweed; 125 g ai/ha): 100 | Plant response rating (scale of 0 to 100 where 0 is no effect and 100 is complete control) (pigweed; 250 g ai/ha): 100 | Pigweed plant response rating (0 to 100) (pigweed; 31 g ai/ha): 98 | Pigweed plant response rating (0 to 100) (pigweed; 62 g ai/ha): 100

Fc1ccc(-c2nc(OCC(F)(F)F)n(Cc3ccnc(C(F)(F)F)c3)n2)cc1 [Compound 30]
Plant response rating (0 to 100), Wheat, Winter (wheat, winter [1]): 15 | Plant response rating: Wheat, Winter (wheat, winter [1]; 62 g ai/ha): 25 | Plant response rating: Wheat, Winter (wheat, winter [1]; 125 g ai/ha): 35 | Plant response rating (0 to 100), Wheat, Spring (wheat, spring [2]): 25 | Plant response rating: Wheat, Spring (wheat, spring [2]; 62 g ai/ha): 35 | Plant response rating: Wheat, Spring (wheat, spring [2]; 125 g ai/ha): 45 | Plant response rating (0 to 100), Lambsquarters (lambsquarters): 85 | Plant response rating: Lambsquarters (lambsquarters; 62 g ai/ha): 95 | Plant response rating: Lambsquarters (lambsquarters; 125 g ai/ha): 95 | Plant response rating (0 to 100), Oilseed Rape (oilseed rape): 10 | Plant response rating: Oilseed Rape (oilseed rape; 62 g ai/ha): 35 | Plant response rating: Oilseed Rape (oilseed rape; 125 g ai/ha): 55 | Plant response rating, Galium (galium [3]; 125 g ai/ha): 60 | Plant response rating, Galium (galium [3]; 500 g ai/ha): 90 | Plant response rating: Galium (galium [4]; 16 g ai/ha): 70 | Plant response rating: Galium (galium [4]; 31 g ai/ha): 75 | Plant response rating: Galium (galium [4]; 62 g ai/ha): 80 | Plant response rating: Galium (galium [4]; 125 g ai/ha): 85 | Plant response rating: Wheat, Winter (wheat, winter [5]; 16 g ai/ha): 15 | Plant response rating: Wheat, Winter (wheat, winter [5]; 31 g ai/ha): 15 | Plant response rating: Wheat, Winter (wheat, winter [5]; 62 g ai/ha): 25 | Plant response rating: Wheat, Winter (wheat, winter [5]; 125 g ai/ha): 35 | Plant response rating: Wheat, Spring (wheat, spring [6]; 16 g ai/ha): 25 | Plant response rating: Wheat, Spring (wheat, spring [6]; 31 g ai/ha): 30 | Plant response rating: Wheat, Spring (wheat, spring [6]; 62 g ai/ha): 35 | Plant response rating: Wheat, Spring (wheat, spring [6]; 125 g ai/ha): 45 | Plant response rating: Barley, Winter (barley, winter; 16 g ai/ha): 20 | Plant response rating: Barley, Winter (barley, winter; 31 g ai/ha): 25 | Plant response rating: Barley, Winter (barley, winter; 62 g ai/ha): 30 | Plant response rating: Barley, Winter (barley, winter; 125 g ai/ha): 40 | Plant response rating: Barley, Spring (barley, spring; 16 g ai/ha): 30 | Plant response rating: Barley, Spring (barley, spring; 31 g ai/ha): 40 | Plant response rating: Barley, Spring (barley, spring; 62 g ai/ha): 35 | Plant response rating: Barley, Spring (barley, spring; 125 g ai/ha): 45 | Waterhemp plant response rating (0 to 100) (waterhemp; 31 g ai/ha): 100 | Waterhemp plant response rating (0 to 100) (waterhemp; 62 g ai/ha): 100 | Plant response rating (scale of 0 to 100 where 0 is no effect and 100 is complete control) (waterhemp): 100 | Plant response rating (scale of 0 to 100 where 0 is no effect and 100 is complete control) (nutsedge, yellow; 125 g ai/ha): 0 | Plant response rating (scale of 0 to 100 where 0 is no effect and 100 is complete control) (nutsedge, yellow; 250 g ai/ha): 10 | Nutsedge, Yellow plant response rating (0 to 100) (nutsedge, yellow; 31 g ai/ha): 0 | Nutsedge, Yellow plant response rating (0 to 100) (nutsedge, yellow; 62 g ai/ha): 0 | Plant response rating (scale of 0 to 100 where 0 is no effect and 100 is complete control) (pigweed; 125 g ai/ha): 100 | Plant response rating (scale of 0 to 100 where 0 is no effect and 100 is complete control) (pigweed; 250 g ai/ha): 100 | Pigweed plant response rating (0 to 100) (pigweed; 31 g ai/ha): 100 | Pigweed plant response rating (0 to 100) (pigweed; 62 g ai/ha): 100
